Experimental data from patent US20040006041A1, “Aqueous fludarabine phosphate composition” (priority 2002, published 2004).

Assays:
Format in all cases: physicochemical
[1] = Effect of pH on formation of related compounds, aqueous composition stored at 40° C. for 1 month followed by one-year storage at 2-8° C.; settings: 25 mg/mL, 40° C. 1 month then one year 2-8° C.
Description: (§1) The effect of the pH of the aqueous fludarabine phosphate composition on the stability of the compositions at elevated temperatures also is shown in Tables 2 and 3. The concentration of fludarabine phosphate in each of the compositions of Tables 2 and 3 was 25 mg/mL.

[2] = Effect of pH on formation of related compounds, aqueous composition stored at 27.5° C. for 7 months
Description: as §1

[3] = Effect of pH on formation of related compounds, aqueous compositions stored at 40° C. for 1 month
Description: The effect of the pH of the aqueous fludarabine phosphate composition on the stability of the compositions at elevated temperatures is shown in the following table. The concentration of fludarabine phosphate in each of the compositions of Table 1 was 25 mg/mL.
Its level of “total related compounds” was 0.1%. In contrast, after being stored for 1 months at 40° C., the fludarabine phosphate composition having a pH of 7.7 contained 0.8 of FP-2HA and 1.3% “total related compounds.”

[4] = pH 5.5, 25 mg/mL aqueous composition
[5] = pH 6.5, 25 mg/mL aqueous composition
[6] = pH 7.7, 25 mg/mL aqueous composition
[7] = pH 8.1, 25 mg/mL aqueous composition

Fludarabine phosphate
Concentration of FP-2HA, % ([1]; pH 6.0): 0.4%
Single Largest Other, % ([1]; pH 6.0): 0.09%
Total Related Compounds*, % (excluding fludarabine) ([1]; pH 6.0): 0.5%
Concentration of FP-2HA, % ([1]; pH 7.0): 0.32%
Single Largest Other, % ([1]; pH 7.0): 0.1%
Total Related Compounds*, % (excluding fludarabine) ([1]; pH 7.0): 0.34%
Concentration of FP-2HA, % ([1]; pH 7.6): 0.56%
Single Largest Other, % ([1]; pH 7.6): 0.2%
Total Related Compounds*, % (excluding fludarabine) ([1]; pH 7.6): 1.1%
Concentration of FP-2HA, % ([1]; pH 8.1): 0.93%
Single Largest Other, % ([1]; pH 8.1): 0.4%
Total Related Compounds*, % (excluding fludarabine) ([1]; pH 8.1): 2.0%
Concentration of FP-2HA, % ([2]; pH 6.8, 25 mg/mL): 0.33%
Single Largest Other, % ([2]; pH 6.8, 25 mg/mL): 0.1%
Total Related Compounds*, % (excluding fludarabine) ([2]; pH 6.8, 25 mg/mL): 0.43%
Concentration of FP-2HA, % ([2]; pH 7.2, 25 mg/mL): 0.54%
Single Largest Other, % ([2]; pH 7.2, 25 mg/mL): 0.1%
Total Related Compounds*, % (excluding fludarabine) ([2]; pH 7.2, 25 mg/mL): 0.94%
Concentration of FP-2HA, % [3, 4]: <LOQ
Total Related Compounds*, % (excluding fludarabine) [3, 4]: 0.1%
Concentration of FP-2HA, % [3, 5]: <LOQ
Total Related Compounds*, % (excluding fludarabine) [3, 5]: 0.2%
Concentration of FP-2HA, % [3, 6]: 0.8%
Total Related Compounds*, % (excluding fludarabine) [3, 6]: 1.3%
Concentration of FP-2HA, % [3, 7]: 1.0%
Total Related Compounds*, % (excluding fludarabine) [3, 7]: 2.2%
